Laboratory results published in US7709458B2, “Method for inhibiting cancer cell proliferation or increasing cancer cell apoptosis” (priority 2004, dated 2010).

What was measured:
[1] = system: H508 human colon cancer cells; test: H508 colon cancer cell proliferation assay (sulforhodamine B colorimetric assay); type: cell-based; details: for effect on basal H508 cell proliferation / effect on EGF-induced H508 cell proliferation / effect on acetylcholine-induced H508 cell proliferation: 50 μM; for effect on basal H508 cell proliferation / potency in reducing acetylcholine- and EGF-stimulated H508 proliferation compared with c-di-GMP: 5 days incubation; for effect on EGF-induced H508 cell proliferation: EGF 1 ng/ml; for effect on EGF-induced H508 cell proliferation / effect on acetylcholine-induced H508 cell proliferation: 5 days; for effect on acetylcholine-induced H508 cell proliferation: acetylcholine 300 μM
Procedure: H508 colon cancer cell culture. H508 human colon cancer cells were grown in RPMI 1640 (ATCC) supplemented with 10% fetal bovine serum (FBS) (Biowhittaker). Adherent cultures were passaged weekly at subconfluence after trypsinization. Cultures were maintained in incubators at 37° C. in an atmosphere of 5% CO2 and 95% air.
H508 colon cancer cell proliferation assay. Cell proliferation was determined using the sulforhodamine B (SRB) colorimetric assay (Skehan et al., 1990). Cells were seeded in 96-well plates (Corning Glass Works, Corning, N.Y.) at approx. 10% confluence and allowed to attach for 24 h. Growth medium was removed and fresh medium without FBS and containing the indicated concentration of test agent was added. Cells were incubated for the indicated periods of time at 37° C. in an atmosphere of 5% CO2 and 95% air. After incubation, cells were treated for 30 min with 0.4% (w/v) SRB dissolved in 1% acetic acid. Protein-bound dye was extracted with unbuffered 10 mM Tris base. Absorbance was measured at 560 nm using a computer-interfaced, 96-well microtiter plate reader.
c-di-GMP inhibits proliferation of human colon cancer cells. The potential therapeutic actions of c-di-GMP were examined on basal and growth factor-stimulated proliferation of cells derived from a moderately differentiated human cecal adenocarcinoma (H508 cells) that express M3 muscarinic (M3R) and epidermal growth factor (EGF) receptors (EGFR) (Cheng et al., 2003). Cell proliferation was determined using the validated sulforhodamine B (SRB) calorimetric assay (Skehan et al., 1990). H508 cells were incubated in the absence or presence of a growth stimulant, acetylcholine (300 μM) and EGF (1 ng/ml) alone or with increasing concentrations of c-di-GMP (0.5-50 μM). After a 5-day incubation, the highest concentration of c-di-GMP tested, 50 μM, reduced basal H508 cell proliferation by approx. 15% (FIG. 1; p<0.05 compared to control, Student's unpaired t-test).

[2] = patients with Stage II or III disease; adjuvant chemotherapy (Bresalier, 2002); cited from earlier work

SMILES	effect on basal H508 cell proliferation [1]	effect on EGF-induced H508 cell proliferation [1]	effect on acetylcholine-induced H508 cell proliferation [1]	potency in reducing acetylcholine- and EGF-stimulated H508 proliferation compared with c-di-GMP [1]	reduction of colon cancer mortality [2] [%]	reduction of colon cancer recurrence [2] [%]
Nc1nc2c(ncn2[C@@H]2O[C@H](COP(=O)(O)O)[C@@H](O)[C@H]2O)c(=O)[nH]1 [5′-GMP, guanosine 5′-monophosphate, reference compound]	neither of the guanosine analogs tested, cGMP and 5′-GMP, altered basal proliferation	reduced	reduced	less potent in this action than c-di-GMP		
O=c1[nH]cc(F)c(=O)[nH]1 [5-fluorouracil]					33	42
Nc1nc2c(ncn2[C@@H]2O[C@@H]3COP(=O)(O)O[C@H]3[C@H]2O)c(=O)[nH]1 [cGMP, guanosine 3′,5′-cyclic monophosphate, reference compound]	neither of the guanosine analogs tested, cGMP and 5′-GMP, altered basal proliferation	reduced	reduced	less potent in this action than c-di-GMP		
